ChEMBL document CHEMBL3885861, “Open TG-GATES”

Species on record: Rattus norvegicus
Assay: Open TG-GATES - Regimen: Single
Assay type: toxicity, organism-based, Sprague-Dawley
Parameters: regimen Single, gender Male, age 6 weeks
Details: in vivo, po, route gavage; for gamma-GTP / ALP / AST / CRE / DBIL / GLC / IP / K / LDH / Na / PL / RALB / TBIL / TC / TP: tissue Plasma; for Bas / Eos / Lym / MCHC / MCV / Mono / Neu / RBC / Ret / WBC: tissue Blood; for KIDNEY_L / KIDNEY_R / KIDNEY_TOTAL: tissue Kidney; for LIVER: tissue Liver
[1] = 600 mg/kg, 3 h, dose level High
[2] = 600 mg/kg, 6 h, dose level High
[3] = 600 mg/kg, 9 h, dose level High
[4] = 600 mg/kg, 24 h, dose level High

CS(=O)(=O)O.Cc1ccc(NC(=O)c2ccc(CN3CCN(C)CC3)cc2)cc1Nc1nccc(-c2cccnc2)n1 [IMATINIB MESYLATE]
gamma-GTP (200 mg/kg, 24 h, dose level Middle): 0.8 IU/L | Bas [1]: 0% | Eos [1]: 1% | Lym [1]: 74.2% | MCHC [1]: 32.7% | MCV [1]: 63.3 fL | Mono [1]: 2.6% | Neu [1]: 22.2% | RBC [1]: 595.8 x10_4/ul | Ret [1]: 9.3% | WBC [1]: 88.6 x10_2/uL | KIDNEY_L [1]: 0.9 g | KIDNEY_R [1]: 0.9 g | KIDNEY_TOTAL [1]: 1.8 g | LIVER [1]: 8.9 g | ALP [1]: 1505 IU/L | AST [1]: 86 IU/L | CRE [1]: 0.2 mg/dL | DBIL [1]: 0.01 mg/dL | GLC [1]: 185.4 mg/dL | IP [1]: 9 mg/dL | K [1]: 3.9 meq/L | LDH [1]: 244.6 IU/L | Na [1]: 143.3 meq/L | PL [1]: 138.4 mg/dL | RALB [1]: 4.2 g/dL | TBIL [1]: 0.044 mg/dL | TC [1]: 79 mg/dL | TP [1]: 5.6 g/dL | gamma-GTP [1]: 0.8 IU/L | Bas [2]: 0% | Eos [2]: 0.8% | Lym [2]: 67.8% | MCHC [2]: 33.1% | MCV [2]: 63.5 fL | Mono [2]: 1.6% | Neu [2]: 28.6% | RBC [2]: 589.6 x10_4/ul | Ret [2]: 8.9% | WBC [2]: 104.9 x10_2/uL | KIDNEY_L [2]: 0.9 g | KIDNEY_R [2]: 0.9 g | KIDNEY_TOTAL [2]: 1.8 g | LIVER [2]: 7.9 g | ALP [2]: 1661.2 IU/L | AST [2]: 88.2 IU/L | CRE [2]: 0.2 mg/dL | DBIL [2]: 0.016 mg/dL | GLC [2]: 180.4 mg/dL | IP [2]: 8.9 mg/dL | K [2]: 3.9 meq/L | LDH [2]: 553.8 IU/L | Na [2]: 140 meq/L | PL [2]: 159.4 mg/dL | RALB [2]: 4.1 g/dL | TBIL [2]: 0.048 mg/dL | TC [2]: 91.6 mg/dL | TP [2]: 5.3 g/dL | gamma-GTP [2]: 0.8 IU/L | Bas [3]: 0% | Eos [3]: 0% | Lym [3]: 72.2% | MCHC [3]: 32.6% | MCV [3]: 63.6 fL | Mono [3]: 1.6% | Neu [3]: 25.2% | RBC [3]: 592.6 x10_4/ul | Ret [3]: 9.7% | KIDNEY_L [3]: 0.9 g | KIDNEY_R [3]: 0.9 g | KIDNEY_TOTAL [3]: 1.8 g | LIVER [3]: 7.8 g | ALP [3]: 1627 IU/L | AST [3]: 85 IU/L | CRE [3]: 0.2 mg/dL | DBIL [3]: 0.016 mg/dL | GLC [3]: 183.2 mg/dL | IP [3]: 8.8 mg/dL | K [3]: 3.8 meq/L | LDH [3]: 180.8 IU/L | Na [3]: 140.1 meq/L | PL [3]: 140.8 mg/dL | RALB [3]: 4.2 g/dL | TBIL [3]: 0.054 mg/dL | TC [3]: 78 mg/dL | TP [3]: 5.5 g/dL | gamma-GTP [3]: 0.8 IU/L | Bas [4]: 0% | Eos [4]: 0.8% | Lym [4]: 76.4% | MCHC [4]: 33.1% | MCV [4]: 62.5 fL | Mono [4]: 2% | Neu [4]: 20.4% | RBC [4]: 584.2 x10_4/ul | Ret [4]: 7.5% | WBC [4]: 80.4 x10_2/uL | KIDNEY_L [4]: 0.9 g | KIDNEY_R [4]: 0.9 g | KIDNEY_TOTAL [4]: 1.9 g | LIVER [4]: 7.8 g | ALP [4]: 1838.6 IU/L | AST [4]: 118.4 IU/L | CRE [4]: 0.2 mg/dL | DBIL [4]: 0.016 mg/dL | GLC [4]: 175.2 mg/dL | IP [4]: 7.8 mg/dL | K [4]: 4.1 meq/L | LDH [4]: 227.6 IU/L | Na [4]: 141.8 meq/L | PL [4]: 131.4 mg/dL | RALB [4]: 4 g/dL | TBIL [4]: 0.072 mg/dL | TC [4]: 72.6 mg/dL | TP [4]: 5.6 g/dL | gamma-GTP [4]: 0.9 IU/L
